# Measured values from patent US20250170124A1, “METHODS OF DIAGNOSING AND TREATING NEURODEGENERATIVE DISEASES” (The General Hospital Corporation, priority 2022, published 2025).
# Where two headings read alike, the source gives them in different places.
# Columns and labels:
# [1] = tested on: PrP-5′UTR (prion protein IRE); type: cell-based, human; conditions: versus SNCA 5′UTR
# [2] = tested on: alpha-synuclein 5′-UTR IRE (SNCA 5′UTR); experiment: Primary screen/retest: ASYN 5′-UTR IRE-driven luciferase expression in H4 cells; type: cell-based, human; conditions: Homo sapiens, 48 h
# [3] = tested on: alpha-synuclein; experiment: ELISA secondary screen for alpha-synuclein in SH-SY5Y cells; type: cell-based, human; set-up: Decrease syn(%) SHSY5Y cells: unit of the concentration uncertain; conditions: for Decrease syn(%) SHSY5Y cells: Table 3; for Decrease αsyn(%) SHSY5Y cells: Table 2
# Protocol: FIG. 2 illustrates the results of ELISA experiments with compound 10 in SH-SY5Y cells. […]
# FIG. 18 illustrates alpha Synuclein ELISA (Invitrogen) measurements from SHSY5 undifferentiated neurons treated with the indicated doses (triplicate wells) of compounds 2, 13, 11, 14, 15, and 16) for 48 h.
# A human ASYN ELISA kit was utilized for all ELISA experiments (Invitrogen alpha-synuclein ELISA kit KHB0061) and the kit protocol was followed.
# 1) Plate SH-SY5Y […] cells (Corning, 3570) at 10,000 cells/well in 50 μL phenol red free media (phenol red-free DMEM with 4.5 g/L D-glucose [Lonza, 12-917F] supplemented with 10% FBS [Lonza, 14-503E], 200 μM L-glutamine [Lonza, 17-605E], 100 μM penstrep [Lonza, 17-602E] and 200 μg/mL geneticin [Invitrogen, 10131-027]).
# 2) Lid plates, then incubate cells for 24 hours at 37° C., 5% CO2, 95% humidity in a tissue culture incubator.
# 3) Pin 100 nL of each compound into the assay plates spanning a final concentration range from 100-0.006 μM.
# 4) Incubate plates for 48 h at 37° C., 5% CO2, 95% humidity. Following incubation, add 5 μL of Alamar blue solution per well and allow to incubate for 1 h at 37° C., 5% CO2, 95% humidity.
# 5) Read Alamar blue fluorescence using a Thermo Varioskan (570 nm excitation, 585 nm emission). Remove cell media and add 30 μL cell lysis solution with protease inhibitor (G Biosciences, 786-331; 10 μL/mL).
# 6) Place plates on a plate shaker for 1 h, before removing 20 μL lysate. Transfer cell lysates to 500 μL Eppendorf tubes and centrifuge (Eppendorf Centrifuge 5417C) for 10 min at 13,000 rpm.
# 7) Add 12 μL of the cell supernatant to 48 μL of standard diluent buffer (1:5). Add these samples to ELISA plate wells. Prepare ASYN standard curve wells as described in the kit manual.
# 8) Add 50 μL of anti-α-Synuclein (Detection Antibody) solution to each well, tapping the plate to mix. Cover the plate with a tape seal and incubate for 3 h at RT.
# 9) Wash wells four times with wash buffer using a multichannel pipette and add 100 μL of anti-rabbit IgG-HRP antibody solution to each well. Cover the plate and incubate for 30 min at RT. Wash wells four times with wash buffer and add 100 μL of Stabilized Chromogen to each well. Seal the plate and incubate in the dark at RT for 30 min.
# 10) Finally, add 100 μL of Stop Solution to each well, tapping the plate to mix, and read absorbance at 450 nm using an Envision plate reader (Perkin Elmer).
# [4] = tested on: PGL3 5′UTR; experiment: Secondary (counterscreen) luciferase assay in H4-C cells, IRE stem-loop removed; type: cell-based, human; conditions: versus SNCA 5′UTR
# [5] = tested on: α-Syn; experiment: Decrease of α-syn in Triple SNCA cortical neurons; conditions: Table 2; concentration not given
# [6] = tested on: α-Synuclein; experiment: Decrease of α-syn in iPSC derived DA neurons; type: cell-based, human; set-up: Decrease syn(%) DA neurons: dose or concentration left out as unconfirmed; conditions: for Decrease αsyn(%) DA neurons: Table 2, @ 1 μM; for Decrease syn(%) DA neurons: Table 3
# [7] = tested on: α-Synuclein; experiment: Western blots of α-syn in iPSC derived DA neuron lysates; type: cell-based, human; conditions: 72 h; for inhibition of α-Synuclein protein expression versus β-Syn, γ-Syn, Ferritin, APP and Prion proteins: 1 μM, normalized to β-Actin; for α-syn levels (Western blot): 10 μM and 1 μM compound, β-actin standardized, N=3
# [8] = Table 3, H4 cells, luciferase, read-out: IC50/M (SNCA 5′UTR)
# [9] = Table 2, H4 cells, luciferase, read-out: IC50/μM (SNCA 5′UTR)
Compound,Selectivity PrP-5′UTR ([1]; Table 3),"IC50 [2, 8]",Selectivity PGL3 5′UTR ([4]; Table 3),Selectivity PrP-5′UTR ([1]; Table 2),"IC50 [2, 9]",Selectivity PGL3 5′UTR ([4]; Table 2),other results
"O=C(c1ccc(C[S+]([O-])c2ccccc2Cl)o1)N1CCN(c2ccccc2)CC1 (stereo not drawn) [Compound 12, 1-(5-{[(2-Chlorophenyl)sulfinyl]methyl}-2-furoyl)-4-phenylpiperazine]",Inc.,0.1 µM,80-fold,,,,Decrease syn(%) SHSY5Y cells ([3]; @ 0.1-1M): 21-42 @ 0.1-1M %
"CCOC(=O)c1[nH]c(C)c(C(=O)c2cc(F)ccc2F)c1C [Compound 8, ethyl 4-(2,5-difluorobenzoyl)-3,5-dimethyl-1H-pyrrole-2-carboxylate]",,,,58-fold,0.2 µM,53-fold,Decrease αsyn(%) SHSY5Y cells ([3]; @ 0.1-1 μM): 20-40 @ 0.1-1%
"COc1ccc(/C=C/C(=O)c2cc(F)ccc2OC(=O)c2ccccc2)cc1OC [Compound 14, 2-[(2E)-3-(3,4-dimethoxyphenyl)prop-2-enoyl]-4-fluorophenyl benzoate]",Inc.,0.194 µM,66-fold,,,,Decrease syn(%) SHSY5Y cells ([3]; @ 0.1 µM): 20-50 @ 0.1M %
"CN(C)c1nc(N)nc(CSc2nnnn2-c2cccc3ccccc23)n1 [Compound 10, N^2,N^2-dimethyl-6-(((1-(naphthalen-1-yl)-1H-tetrazol-5-yl)thio)methyl)-1,3,5-triazine-2,4-diamine]",35-fold,,34-fold,35-fold,,34-fold,"Decrease αsyn(%) X3 SNCA neurons [5]: 25%; Decrease αsyn(%) DA neurons [6]: 60 @ 1 μM %; Decrease syn(%) DA neurons [6]: 60 @ 1M %; IC50 ([2]; read-out: IC50/M (SNCA 5′UTR)): 1.8 to 3.5 µM; IC50 ([2]; read-out: IC50/μM (SNCA 5′UTR)): 1.8 to 3.5 µM; Decrease αsyn(%) SHSY5Y cells ([3]; @ 0.1 μM): 19-38 @ 0.1%; Decrease syn(%) SHSY5Y cells ([3]; @ 0.1 µM): 19-38 @ 0.1M %; inhibition of α-Synuclein protein expression versus β-Syn, γ-Syn, Ferritin, APP and Prion proteins [7]: selectively inhibit; α-syn levels (Western blot) [7]: reduced"
"COc1ccc(/C=C/C(=O)c2cc(F)ccc2OC(=O)c2ccccc2)cc1OC [Compound 5, (E)-2-(3-(3,4-dimethoxyphenyl)acryloyl)-4-fluorophenyl benzoate]",,,,Inc.,0.194 µM,66-fold,Decrease αsyn(%) SHSY5Y cells ([3]; @ 0.1 μM): 20-50 @ 0.1%
"COc1cccc(N2CCN(C(=O)c3ccc(C[S+]([O-])c4ccc(C)cc4)o3)CC2)c1 (stereo not drawn) [Compound 1, (4-(3-methoxyphenyl)piperazin-1-yl)(5-((p-tolylsulfinyl)methyl)furan-2-yl)methanone]",,,,126-fold,0.1 µM,58-fold,Decrease αsyn(%) SHSY5Y cells ([3]; @ 1 μM): 14-28 @ 1%
"CCOC(=O)c1[nH]c(C)c(C(=O)c2cc(F)ccc2F)c1C [Compound 13, Ethyl 4-(2,5-difluorobenzoyl)-3,5-dimethyl-1H-pyrrole-2-carboxylate]",58-fold,0.2 µM,53-fold,,,,Decrease syn(%) SHSY5Y cells ([3]; @ 0.1-1M): 20-40 @ 0.1-1M %
"COC(=O)C1CC23C=CCN4CCC5(c6ccccc6NC15C2C)C43 (stereo not drawn) [Compound 3, methyl 14-methyl-4,5,11,12-tetrahydro-1H,3a^1H,6H-3a,5a-methanoindolizino[8,1-cd]carbazole-5-carboxylate]",17-fold,,31-fold,17-fold,,31-fold,"Decrease αsyn(%) X3 SNCA neurons [5]: 50%; Decrease αsyn(%) DA neurons [6]: 60 @ 1 μM %; Decrease syn(%) DA neurons [6]: 60 @ 1M %; IC50 ([2]; read-out: IC50/M (SNCA 5′UTR)): 0.134 µM; IC50 ([2]; read-out: IC50/μM (SNCA 5′UTR)): 0.134 µM; Decrease αsyn(%) SHSY5Y cells ([3]; @ 1-10 μM): 15-19 @ 1-10%; Decrease syn(%) SHSY5Y cells ([3]; @ 1-10M): 15-19 @ 1-10M %; inhibition of α-Synuclein protein expression versus β-Syn, γ-Syn, Ferritin, APP and Prion proteins [7]: selectively inhibit; α-syn levels (Western blot) [7]: reduced"
"COC(=O)c1c(NC(=O)c2ccc([N+](=O)[O-])o2)sc2c1CCN(C(C)C)C2 [Compound 9, methyl 6-isopropyl-2-(5-nitrofuran-2-carboxamido)-4,5,6,7-tetrahydrothieno[2,3-c]pyridine-3-carboxylate]",,,"1,200-fold",,,"1,200-fold","Decrease αsyn(%) DA neurons [6]: 90 @ 1 μM %; Decrease syn(%) DA neurons [6]: 90 @ 1M %; IC50 ([2]; read-out: IC50/M (SNCA 5′UTR)): 0.1 µM; IC50 ([2]; read-out: IC50/μM (SNCA 5′UTR)): 0.1 µM; inhibition of α-Synuclein protein expression versus β-Syn, γ-Syn, Ferritin, APP and Prion proteins [7]: selectively inhibit; α-syn levels (Western blot) [7]: reduced"
"Cc1cc(C)cc(Nc2nc3ccc(C)cc3n3cnnc23)c1 [Compound 15, N-(3,5-dimethylphenyl)-8-methyl[1,2,4]triazolo[4,3-a]quinoxalin-4-amine]",18-fold,2.8 µM,43-fold,,,,Decrease syn(%) SHSY5Y cells ([3]; @ 1 µM): 25-50 @ 1M^ %
"Cc1cc(C)cc(Nc2nc3ccc(C)cc3n3cnnc23)c1 [Compound 4, N-(3,5-dimethylphenyl)-8-methyl-[1,2,4]triazolo[4,3-a]quinoxalin-4-amine]",,,,18-fold,2.8 µM,43-fold,Decrease αsyn(%) SHSY5Y cells ([3]; @ 1 μM): 25-50 @ 1%
"CCC1=Nc2cc(C(=O)NCCCOC)ccc2Sc2ccccc21 [Compound 7, 11-ethyl-N-(3-methoxypropyl)dibenzo[b,f][1,4]thiazepine-8-carboxamide]",,,,127-fold,0.127 µM,68-fold,Decrease αsyn(%) SHSY5Y cells ([3]; @ 1 μM): 30-60 @ 1%
"O=C(c1ccc(C[S+]([O-])c2ccccc2Cl)o1)N1CCN(c2ccccc2)CC1 (stereo not drawn) [Compound 6, (5-(((2-chlorophenyl)sulfinyl)methyl)furan-2-yl)(4-phenylpiperazin-1-yl)methanone]",,,,Inc.,0.1 µM,80-fold,Decrease αsyn(%) SHSY5Y cells ([3]; @ 0.1-1 μM): 21-42 @ 0.1-1%
"CCC1=Nc2cc(C(=O)NCCCOC)ccc2Sc2ccccc21 [Compound 16, 11-ethyl-N˜8˜-(3-methoxypropyl)dibenzo[b,f][1,4]thiazepine-8-carboxamide]",127-fold,0.127 µM,68-fold,,,,Decrease syn(%) SHSY5Y cells ([3]; @ 1 µM): 30-60 @ 1M^ %
